Like-named read-outs stand apart in the source and are kept apart here.
Tested on: CYP3A4
Details: human, hepatocytes, 48 h
Experimental: Evaluation of Drug Metabolizing Enzyme (CYP3A4) Inducibility Using Cryopreserved Human Hepatocyte
Cryopreserved hepatocytes (In Vitro Technology) were rapidly thawed while stirring at 37° C., and then ice-cooled William's Medium E (10% FBS, +PSG) was slowly added to the cells prior to centrifugation at 500 rpm for 5 minutes. After removing the supernatant, the obtained hepatocytes were diluted with ice-cooled William's Medium E to a concentration of 5×10^5 cells/mL, seeded on a 48-well collagen coated plate (BD Biosciences) at 1×10^5 cells/cm^2 and incubated for about 24 hours at 37° C., 5% CO2, after which the medium was changed with Hepato-STIM™ (BD Biosciences) (+EGF, PSG, −FBS) and culture was maintained for another 24 hours under conditions of 37° C., 5% CO2. At approximately 48 hours after the cell seeding, the test compound or rifampicin (SIGMA, positive control) in the form of a diluted solution (using Hepato-STIM™ (+EGF, PSG, −FBS)) was added, hepatocyte were incubated for about 24 hours under conditions of 37° C., 5% CO2, and the culture medium was changed with medium containing a freshly prepared dilution of the test compound or rifampicin prior to further incubation for 24 hours under the same conditions. After incubation, the cells were washed once with PBS, and the total RNA was extracted using a Qiagen RNeasy Mini kit (Qiagen). The cDNA was synthesized by reverse-transcription of extracted using TaqMan Reverse Transcription Reagents (Applied Biosystems). The reverse transcription reaction was carried out using oligo dT as primer, with treatment at 25° C. for 10 minutes followed by treatment at 48° C. for 60 minutes, after which the reverse transcriptase was inactivated by treatment at 95° C. for 10 minutes. The obtained cDNA was supplied to a PCR using a Gene Amp PCR system 9700. The obtained cDNA was quantitated using an SYBR Green PCR Core Reagents kit (Applied Biosystems), and the human CYP3A4 and GAPDH mRNA was quantitated using an ABI7700 (Applied Biosystems). The abbreviations used in the test example are explained below. • FBS: Fetal Bovine Serum • PSG: Penicillin (100 U/ml), Streptomycin (100 μg/ml), Glutamine (2 mM) • EGF: Epidermal Growth Factor • GAPDH: Glyceraldehyde-3-Phosphate Dehydrogenase
(2) Calculation of CYP3A4 Inducibility
Next, for comparison of each test run, the differences between the value of the CYP3A4 mRNA amount divided by the GAPDH mRNA amount with addition of the test compound at various concentrations and with addition of the negative control were calculated as percentages, with 100% being defined as the difference between the values of the CYP3A4 mRNA amount divided by the GAPDH mRNA amount for the positive control and negative control, to determine the inducibility of each test compound.

SMILES | CYP3A4 inducibility, % of Positive Control (0.03 μM) [%] | CYP3A4 inducibility, % of Positive Control (0.1 μM) [%] | CYP3A4 inducibility, % of Positive Control (0.3 μM) [%] | CYP3A4 inducibility (1 μM) [%] | CYP3A4 inducibility, % of Positive Control (1 μM) [%] | CYP3A4 inducibility, % of Positive Control (3 μM) [%] | CYP3A4 inducibility, % of Positive Control (10 μM) [%]
CCc1nn2c(-c3c(OC)cc(COC)cc3OC)cccc2c1N(CC1CCOCC1)CC1CC1 [Example 1, N-Cyclopropylmethyl-N-7-[2,6-dimethoxy-4-(methoxymethyl)phenyl]-2-ethylpyrazolo[1,5-a]pyridin-3-yl-N-tetrahydro-2H-4-pyranylmethylamine] | 6 | 7 | 12 | ≤ 40 | 20 | 36 | 65
CCOCc1cc(OC)c(-c2cccc3c(N(CC4CCOCC4)CC4CC4)c(CC)nn23)c(OC)c1 [Example 3, N-Cyclopropylmethyl-N-7-[4-(ethoxymethyl)-2,6-dimethoxyphenyl]-2-ethylpyrazolo[1,5-a]pyridin-3-yl-N-tetrahydro-2H-4-pyranylmethylamine] | 3 | 3 | 7 | ≤ 40 | 25 | 23 | 34
COCc1cc(OC)c(-c2cccc3c(N(CC4CCOCC4)CC4CC4)c(SC)nn23)c(OC)c1 [Example 59, N-Cyclopropylmethyl-N-[7-[2,6-dimethoxy-4-(methoxymethyl)phenyl]-2-(methylsulfanyl)pyrazolo[1,5-a]pyridin-3-yl]-N-tetrahydro-2H-4-pyranylmethylamine] | 2 | 3 | 11 | ≤ 40 | 25 | 49 | 59
